Values quoted from earlier work as cited in patent US5681738A, “Use of 10-oxo-trans-8-decenoic acid in mushroom cultivation” (The Penn State Research Foundation, priority 1992, dated 1997).

System: seed chamber of runner bean
Conditions: Zimmerman et al., (1979); cited from earlier work

SMILES: O=C/C=C/CCCCCCCCC(=O)O [12-Oxo-trans-10-dodecenoic acid]
- formation of an intumescence on seed chamber (in words): found to induce the formation of an intumescence
